Measured values published in PubChem BioAssay (NCI).
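96-well plates; 48 h exposure; 5 concentrations. Endpoints by linear interpolation between flanking doses. Not reached: highest tested concentration assigned. TGI is the concentration that stops growth completely.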

Assays:
Assay in all cases: NCI anticancer screen, dose series, 48 h
[1] = system: A549 NSCLC
[2] = system: NCI-H23 lung
[3] = system: NCI-H460 lung
[4] = system: DMS 273 small cell lung
[5] = system: OVCAR-5 ovarian
[6] = system: UACC-257 melanoma
[7] = system: CCRF-CEM leukemia
[8] = system: SW-620 colon
[9] = system: SF-268 CNS
[10] = system: HOP-62 NSCLC
[11] = system: SR leukemia
[12] = system: NCI-H226 lung
[13] = system: TK-10 renal
[14] = system: RPMI-8226 leukemia
[15] = system: SF-539 CNS
[16] = system: DMS 114 small cell lung
[17] = system: COLO 205 colon
[18] = system: OVCAR-3 ovarian
[19] = system: M14 melanoma
[20] = system: NCI-H522 lung
[21] = system: OVCAR-4 ovarian
[22] = system: K-562 leukemia
[23] = system: SNB-78 CNS
[24] = system: UO-31 renal
[25] = system: KM12 colon
[26] = system: SK-MEL-2 melanoma
[27] = system: KM20L2 colon
[28] = system: CAKI-1 renal
[29] = system: DLD-1 colon
[30] = system: SF-295 CNS
[31] = system: HOP-18 NSCLC
[32] = system: UACC-62 melanoma
[33] = system: HCT-116 colon
[34] = system: SK-OV-3 ovarian
[35] = system: IGROV1 ovarian
[36] = system: LXFL 529 NSCLC
[37] = system: EKVX NSCLC
[38] = system: MOLT-4 leukemia
[39] = system: HOP-92 NSCLC
[40] = system: HCT-15 colon
[41] = system: SNB-19 CNS
[42] = system: SNB-75 CNS
[43] = system: SK-MEL-28 melanoma
[44] = system: U251 CNS
[45] = system: ACHN renal
[46] = system: HL-60(TB) leukemia
[47] = system: M19-MEL melanoma
[48] = system: XF 498 CNS
[49] = system: HT29 colon
[50] = system: 786-0 renal
[51] = system: OVCAR-8 ovarian
[52] = system: LOX IMVI melanoma
[53] = system: SN12C renal
[54] = system: SK-MEL-5 melanoma
[55] = system: RXF 393 renal
[56] = system: A498 renal
[57] = system: MALME-3M melanoma
[58] = system: HCC-2998 colon

Measured: TGI

CC1=CC2CCC1(C)C/C2=C(/C)OC=O (stereo not drawn)
> 100 µM: [1] | [2] | [3] | [4] | [5] | [6] | [7] | [8] | [9] | [10] | [11] | [12] | [13] | [14] | [15] | [16] | [17] | [18] | [19] | [20] | [21] | [22] | [23] | [24] | [25] | [26] | [27] | [28] | [29] | [30] | [31] | [32] | [33] | [34] | [35] | [36] | [37] | [38] | [39] | [40] | [41] | [42] | [43] | [44] | [45] | [46] | [47] | [48] | [49] | [50] | [51] | [52] | [53] | [54] | [55]

Cc1cccc(C)c1NC(=O)C(=O)C(C#N)c1ccccc1Cl (stereo not drawn)
> 100 µM: [1] | [2] | [3] | [4] | [5] | [6] | [7] | [8] | [9] | [10] | [11] | [56] | [12] | [13] | [14] | [15] | [16] | [17] | [18] | [19] | [20] | [21] | [22] | [23] | [57] | [24] | [25] | [26] | [27] | [28] | [29] | [30] | [31] | [32] | [33] | [34] | [35] | [36] | [37] | [38] | [39] | [40] | [41] | [42] | [43] | [44] | [45] | [46] | [47] | [48] | [58] | [49] | [50] | [51] | [53] | [54] | [55]

Cn1cc(NC(=O)[C@H]2CCC(N)=N2)cc1C(=O)NCCC(=N)N
> 100 µM: [1] | [2] | [3] | [4] | [6] | [7] | [8] | [9] | [10] | [11] | [12] | [13] | [14] | [15] | [16] | [17] | [18] | [19] | [20] | [22] | [23] | [57] | [24] | [25] | [26] | [27] | [29] | [30] | [31] | [32] | [33] | [34] | [35] | [36] | [37] | [38] | [39] | [41] | [42] | [43] | [44] | [45] | [46] | [48] | [58] | [49] | [50] | [51] | [52] | [53] | [55]

O=C1OC2C(O)COC2(O)C1(O)Cc1c[nH]c2ccccc12 (stereo not drawn)
> 100 µM: [1] | [2] | [3] | [4] | [5] | [6] | [7] | [8] | [9] | [10] | [11] | [56] | [12] | [13] | [14] | [15] | [16] | [17] | [18] | [19] | [20] | [21] | [22] | [23] | [57] | [24] | [25] | [26] | [27] | [28] | [29] | [30] | [31] | [32] | [33] | [34] | [35] | [36] | [37] | [38] | [39] | [40] | [41] | [42] | [44] | [46] | [47] | [48] | [49] | [50] | [51] | [52] | [53] | [54] | [55]

FC(F)(F)C1(Cl)C(Cl)(c2ccccc2)C1(Cl)c1ccccc1 (stereo not drawn)
30.5 µM: [3]
28.2 µM: [4] | [43] | [49]
54.7 µM: [34]
28.6 µM: [53]
30 µM: [5] | [10]
30.2 µM: [19]
26.9 µM: [27] | [54]
27.3 µM: [21]
32.8 µM: [13]
29.1 µM: [8] | [26] | [29]
33.2 µM: [23]
27.5 µM: [2]
24.8 µM: [33] | [39]
30.4 µM: [15]
> 100 µM: [14] | [22] | [46]
26.8 µM: [40] | [52]
25.8 µM: [11]
29.5 µM: [45] | [50]
29.2 µM: [16]
27.4 µM: [12]
27.7 µM: [55]
26 µM: [35]
31.1 µM: [58]
29.4 µM: [30]
31.7 µM: [9]
29.3 µM: [48]
32.2 µM: [51]
28.1 µM: [6] | [18] | [24]
30.1 µM: [37]
29 µM: [25] | [47]
28.3 µM: [44]
23.1 µM: [31]
28 µM: [1]
55 µM: [7]
29.9 µM: [36] | [42]
35.4 µM: [38]
25.6 µM: [28]
29.7 µM: [32]
33.4 µM: [17]
32.5 µM: [41]
